Test results reported in patent publication US9116157B2, “Ice-cleaved alpha-synuclein as a biomarker” (Brandeis University, priority 2010, dated 2015).

How the values were obtained:
ICE = biological target: T1, ICE (Homo sapiens, UniProt P29466); assay: ICE digestion of α-synuclein in vitro, SDS-PAGE and western blot with anti-synuclein antibody; assay type: biochemical
T1 sequence (P29466 120-297 limits assumed): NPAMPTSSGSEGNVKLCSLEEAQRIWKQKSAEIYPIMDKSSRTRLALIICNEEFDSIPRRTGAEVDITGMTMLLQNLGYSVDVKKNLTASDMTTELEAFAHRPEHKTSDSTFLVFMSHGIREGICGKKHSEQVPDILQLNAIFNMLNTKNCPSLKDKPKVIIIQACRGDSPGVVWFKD
T1 sequence (P29466 317-404 limits assumed): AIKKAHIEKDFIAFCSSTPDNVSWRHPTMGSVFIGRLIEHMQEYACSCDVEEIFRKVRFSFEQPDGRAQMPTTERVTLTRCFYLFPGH
Procedure: Here, a 60 ul reaction mixture consisting of 21 μg of synuclein, 10 μg ICE in 100 mM HEPES, pH 7.4, 0.1% OG, 10% glycerol, 150 mM NaCl, with or without 20 μM inhibitor was incubated at 37° C. for 2 hours. 20 μl were withdrawn from the reaction for SDS-PAGE followed by western blotting with anti-synuclein antibody (FIG. 6).

[1] = Blood-brain barrier penetration in animals, preliminary tests; assay type: in vivo
From the text: The present example describes an approach for assessing is the ability of, inter alia, the two compounds referenced above (i.e., VX-765 and NCGC00185682) to cross the blood brain-barrier (BBB). […] In view of the fact that studies of VX-765 as a potential epilepsy therapeutic are currently underway at Vertex, it is hypothesized that either BBB penetration in humans is better or that the amount of compound in the CNS that is needed to achieve the desired effect being measured in the studies is small.

[2] = tested on: M17 cells overexpressing alpha-synuclein; assay: LIVE/DEAD cell viability assay, rescue from alpha-synuclein-induced toxicity; assay type: cell-based, human; settings: FIG. 10
From the text: (§1) Humans have 28 calpain and caspase isozymes—a large but not impossible number to test. RNAi was used to knock down each of these in turn in a neuronal cell culture model of PD. It is a neuroblastoma cell line (BE(2)-M17) carrying a wild-type α-synuclein overexpressing vector. BE(2)-M17 is a clone of the SK-N-BE(2) cell line that was established in November of 1972 from a bone marrow biopsy taken from a child with neuroblastoma. Synuclein on its own is not toxic to these cells, but it is toxic when combined with an oxidative stress agent such as rotenone or menadione. Greater than 90% reduction of mRNA levels for each of the 29 protease genes was routinely achieved, and greater than 50% reduction in protein levels (typically, about 70% reduction) was routinely achieved.
A cell viability assay was performed using LIVE/DEAD (molecular probes) assay according to the manufacture instructions. As summarized in FIG. 10, both RNAi knockdown of caspase-1/ICE and treatment with the caspase-1/ICE inhibitor block synuclein fragment formation in nerve cells and should inhibit synuclein aggregation in neuronal cells derived from one or more mouse models of PD.

[3] = tested on: M17 cells overexpressing α-synuclein; assay: M17 cell viability in the presence of menadione (α-synuclein overexpression); assay type: cell-based, human; settings: low concentrations; FIG. 8
From the text: as §1

[4] = tested on: M17 cells carrying empty pcDNA3 vector; assay: M17 cell viability in the presence of menadione (empty vector); assay type: cell-based, human; settings: low concentrations; FIG. 8
[5] = tested on: M17 overexpressing α-synuclein; assay: α-synuclein fragmentation in M17 cells, western blot with anti-synuclein antibody; assay type: cell-based, human; settings: 12 μM and 14 μM in 1% DMSO; FIG. 9
Procedure: In this set of experiments, M17 overexpressing α-synuclein was grown in Optimem in presence or absence of menadione to confluence. Cells were then scraped and lysed by sonnication for SDS-PAGE followed by western blotting with anti-synuclein antibody.

| ICE-generated α-synuclein fragment below 17 kD (western blot) (ICE; 20 μM inhibitor, 10 μg ICE, 37° C., 2 hours) | block of caspase-1 cleavage of alpha-synuclein (ICE; dose-dependent, FIG. 6) | BBB penetration [1] | Structure (SMILES) | rescue from alpha-synuclein-induced toxicity (cell viability) [2] | toxicity to M17 cells overexpressing α-synuclein [3] | toxicity to M17 cells carrying empty pcDNA3 vector [4] | fragmentation of α-synuclein (smaller fragment below 17 kD) [5] |
| --- | --- | --- | --- | --- | --- | --- | --- |
| diminished | completely blocks | low | CC(C)(C)[C@H](NC(=O)c1ccc(N)c(Cl)c1)C(=O)N1CCC[C@H]1C(=O)N[C@H](C#N)CC(=O)O [NCGC00185682] | – | – | – | – |
| – | – | low | CCO[C@@H]1OC(=O)C[C@@H]1NC(=O)[C@@H]1CCCN1C(=O)[C@@H](NC(=O)c1ccc(N)c(Cl)c1)C(C)(C)C [VX-765] | rescued | – | – | – |
| – | – | – | CC1=CC(=O)c2ccccc2C1=O [menadione] | – | toxic | not toxic | induced fragmentation of α-synuclein |
